Consider 75 molecules from patent US20070088033A1, “Diaryl Substituted Pyridinones” (priority 2002, published 2007).

Several values for one entry are separate records, joined by “and”; a condition that tells them apart may be missing. Equal values may be shown once. Read-outs that look alike come from different tables or passages of the source.

The assay concerns the target T1, human p38 kinase alpha (Homo sapiens, UniProt Q16539).
T1 construct: The coding region of the human p38 cDNA was obtained by PCR-amplification from RNA isolated from the human monocyte cell line THP.1; GST (N); made in house; host or cells: E. coli DH10B
Kind of assay: p38 kinase in vitro assay. Format: biochemical. The protocol:
The ability of compounds to inhibit human p38 kinase alpha was evaluated using two in vitro assay methods. In the first method, activated human p38 kinase alpha phosphorylates a biotinylated substrate, PHAS-I (phosphorylated heat and acid stable protein-insulin inducible), in the presence of gamma ^32p-ATP (^32P-ATP). PHAS-I was biotinylated prior to the assay and provides a means of capturing the substrate, which is phosphorylated during the assay. p38 Kinase was activated by MKK6. Compounds were tested in 10 fold serial dilutions over the range of 100 μM to 0,001 μM using 1% DMSO. Each concentration of inhibitor was tested in triplicate.
All reactions were carried out in 96 well polypropylene plates. Each reaction well contained 25 mM HEPES pH 7.5, 10 mM magnesium acetate and 50 μM unlabeled ATP. […] Activated human p38 kinase alpha was used at 1 μg per 50 μl reaction volume representing a final concentration of 0.3 μM. Gamma ^32P-ATP was used to follow the phosphorylation of PHAS-I. ^32P-ATP has a specific activity of 3000 Ci/mmol and was used at 1.2 μCi per 50 μl reaction volume. The reaction proceeded either for one hour or overnight at 30° C.
Following incubation, 20 μl of reaction mixture was transferred to a high capacity streptavidin coated filter plate (SAM-streptavidin-matrix, Promega) prewetted with phosphate buffered saline, The transferred reaction mix was allowed to contact the streptavidin membrane of the Promega plate for 1-2 minutes. […] Filter plates were air-dried and 20 μl of scintillant was added. The plates were sealed and counted.
A second assay format was also employed that is based on p38 kinase alpha induced phosphorylation of EGFRP (epidermal growth factor receptor peptide, a 21 mer) in the presence ^33P-ATP. Compounds were tested in 10 fold serial dilutions over the range of 100 μM to 0.001 μM in 1% DMSO. Each concentration of inhibitor was tested in triplicate. Compounds were evaluated in 50 μl reaction volumes in the presence of 25 mM Hepes pH 7.5, 10 mM magnesium acetate, 4% glycerol, 0.4% bovine serum albumin, 0.4 mM DTT, 50 μM unlabeled ATP, 25 μg EGFRP (200 μM), and 0.05 μCi ^33p-ATP. Reactions were initiated by addition of 0.09 μg of activated, purified human GST-p38 kinase alpha. Activation was carried out using GST-MKK6 (5:1,p38:MKK6) for one hour at 30° C. in the presence of 50 μM ATP. Following incubation for 60 minutes at room temperature, the reaction was stopped by addition of 150 μl of AG 1×8 resin in 900 mM sodium formate buffer, pH 3.0 (1 volume resin to 2 volumes buffer). The mixture was mixed three times with pipetting and the resin was allowed to settle. A total of 50 μl of clarified solution head volume was transferred from the reaction wells to Microlite-2 plates. 150 μl of Microscint 40 was then added to each well of the Microlite plate, and the plate was sealed, mixed, and counted.

Where [1] appears, read: Table II, several values in a cell = repeat determinations, read-out: p38A.
[2] abbreviates: Table I, average of n trials, n=1 if not reported, read-out: p38 Alpha IC50.
Setting [3] is: Table III, n = number of times assayed, n=1 if not reported, read-out: p38 Alpha IC50.

T1 sequence (Q16539 whole entry): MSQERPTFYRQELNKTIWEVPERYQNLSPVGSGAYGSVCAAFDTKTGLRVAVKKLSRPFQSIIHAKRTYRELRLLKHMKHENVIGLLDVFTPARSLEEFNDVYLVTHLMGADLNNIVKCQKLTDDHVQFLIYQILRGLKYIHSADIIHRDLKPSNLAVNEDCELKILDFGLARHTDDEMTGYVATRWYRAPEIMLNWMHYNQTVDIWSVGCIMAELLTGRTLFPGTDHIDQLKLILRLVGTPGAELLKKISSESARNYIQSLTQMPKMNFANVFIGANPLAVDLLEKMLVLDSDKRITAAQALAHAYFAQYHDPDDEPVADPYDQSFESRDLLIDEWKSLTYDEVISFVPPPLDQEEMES

`CCn1ccc(OCc2ccccc2)c(Br)c1=O` [AAA]: under setting [1], the IC50 came out at 1990 nM.

For the molecule `O=c1c(Br)c(OCc2cccc(Cl)c2)ccn1Cc1cccc(F)c1` [AA], the IC50 under setting [2] was found to be 691 nM.

Take `Cc1cccc(C)c1-n1ccc(OCc2ccc(F)cc2)c(Br)c1=O` [BBBBB]: the IC50 under setting [3] is 455 nM.

Consider `O=c1c(Br)c(SCc2ccccc2)ccn1Cc1ccccc1` [BBBB], for which the IC50 under setting [1] is 3600 nM.

Consider `O=c1c(Br)c(OCc2ccc(F)cc2)ccn1Cc1cccc(F)c1` [BB], for which, under setting [2], the IC50 was 632 nM.

In the case of `O=c1c(Br)c(OCc2ccc(F)cc2)ccn1Cc1ccc(F)cc1` [B], under setting [2], the IC50 worked out at 403 nM.

`O=c1c(Br)c(OCc2ccccc2CO)ccn1Cc1cccc(F)c1` [CCCCC]: under setting [3], the IC50 turned out to be 663 nM.

Consider `O=c1c(Br)c(OCc2ccccc2C(F)(F)F)ccn1Cc1ccccc1` [CCCC], for which the IC50 under setting [1] was 77600 nM.

In the case of `Cc1cc(OCc2cccc(Cl)c2)c(Br)c(=O)n1Cc1ccccc1` [CCC], the IC50 under setting [1] turned out to be 1600 nM.

Consider `N#Cc1ccc(Cn2ccc(OCc3ccccc3)c(Br)c2=O)cc1` [CC], for which, under setting [2], the IC50 came to 536 nM.

`Cc1cccc(C)c1-n1c(C)cc(OCc2ccc(F)cc2F)c(Br)c1=O` [C]: under setting [2], the IC50 turned out to be 64.6 nM.

On to `O=c1c(Br)c(OCc2cccc(Cl)c2)ccn1Cc1cccc(F)c1` [DDDDD], for which the IC50 under setting [3] came out at 691 nM.

As for `O=c1c(Br)c(OCc2ccccc2)ccn1Cc1ccc(OC(F)(F)F)cc1` [DDDD], the IC50 under setting [1] amounted to 2510 nM.

On to `O=c1c(Br)c(OCc2ccc(Cl)cc2)ccn1CCc1ccccc1` [DDD], for which the IC50 under setting [1] is 6630 nM.

As to `Cc1cc(OCc2ccccc2)c(Br)c(=O)n1-c1c(Cl)cccc1Cl` [DD], the IC50 under setting [2] amounted to 554 nM.

With `O=c1c(Br)c(OCc2ccccc2)ccn1Cc1ccc(F)cc1` [D], under setting [2], the IC50 was 170 nM.

As to `Cc1cc(OCc2c(F)cccc2F)c(Br)c(=O)n1Cc1ccncc1` [EEEEE], the IC50 under setting [3] amounted to 684 nM.

`O=c1cc(OCc2ccccc2)ccn1Cc1ccccc1` [EEEE]: the IC50 under setting [1] was 26400 nM and 59200 nM and 49000 nM.

`Cn1ccc(OCc2ccccc2)c(Br)c1=O` [EEE]: the IC50 under setting [1] was 11500 nM.

As for `O=c1c(Br)c(OCc2ccc(F)cc2)ccn1Cc1ccncc1` [EE], the IC50 under setting [2] is 572 nM.

As for `O=c1c(Br)c(OCc2ccc(F)cc2F)ccn1Cc1cccc(F)c1` [E], the IC50 under setting [2] worked out at 129 nM.

As for `COc1cccc(Cn2ccc(OCc3ccc(F)cc3F)c(Br)c2=O)c1` [Example S], under setting [2], the IC50 was 498 nM.

On to `O=c1c(Cl)c(OCc2ccc(F)cc2)ccn1Cc1ccc(F)cc1` [FFFFF], for which, under setting [3], the IC50 amounted to 1080 nM.

For the molecule `O=c1cc(OCc2ccccc2)ccn1Cc1ccccc1F` [FFFF], the IC50 under setting [1] is 33800 nM.

On to `Cc1c(Br)c(OCc2ccccc2)c(Br)c(=O)n1Cc1ccccc1` [FFF], for which the IC50 under setting [1] came to 41600 nM.

For `O=c1c(Br)c(OCc2ccccc2)ccn1Cc1ccc(Br)cc1` [FF], the IC50 under setting [2] is 581 nM.

Regarding `Cc1cc(OCc2ccc(F)cc2F)c(Br)c(=O)n1Cc1cccnc1` [F], the IC50 under setting [2] came to 132 nM.

For `COc1ccc(Cn2ccc(OCc3ccc(F)cc3)c(Br)c2=O)cc1` [GGGGG], the IC50 under setting [3] is 1040 nM.

On to `O=c1cc(OCc2ccccc2)ccn1Cc1ccc(Cl)cc1` [GGGG], for which the IC50 under setting [1] worked out at 31900 nM.

As for `Cn1ccc(OCc2ccccc2)c(Br)c1=O` [GGG], under setting [1], the IC50 came to 13200 nM.

Consider `N#Cc1ccc(Cn2ccc(OCc3ccc(F)cc3)c(Br)c2=O)cc1` [GG], for which the IC50 under setting [2] is 785 nM.

Consider `Cc1cc(OCc2ccc(F)cc2F)c(Br)c(=O)n1-c1c(Cl)cccc1Cl` [G], for which the IC50 under setting [2] was 179 nM.

As for `O=c1c(Br)c(NCc2ccccc2)ccn1Cc1cccc(F)c1` [HHHHH], the IC50 under setting [3] was 1180 nM.

Regarding `O=c1c(Br)c(OCc2ccc(F)cc2)ccn1CCCc1ccccc1` [HHH], the IC50 under setting [1] is 18000 nM.

For the molecule `O=c1c(I)c(OCc2ccc(F)cc2)ccn1Cc1cccc(F)c1` [HH], under setting [2], the IC50 turned out to be 746 nM.

Turning to `Cc1cccc(COc2ccn(Cc3cccc(F)c3)c(=O)c2Br)c1` [H], the IC50 under setting [2] came to 260 nM.

For the molecule `O=c1c(Br)c(OCc2ccc(F)cc2)ccn1Cc1cccc(Cl)c1` [IIIII], under setting [3], the IC50 came out at 1140 nM.

With `O=c1c(Br)c(OCc2ccccc2)ccn1CC1CCNCC1` [III], the IC50 under setting [1] turned out to be 90900 nM.

In the case of `O=c1c(Br)c(OCc2ccc(F)cc2)ccn1Cc1cccnc1` [II], the IC50 under setting [2] turned out to be 873 nM.

As for `Cc1cc(OCc2ccc(F)cc2F)c(Br)c(=O)n1Cc1ccncc1` [I], the IC50 under setting [2] stood at 210 nM.

As to `O=c1c(Br)c(OCc2ccc(F)cc2)ccn1CC1CC1` [JJJJJ], the IC50 under setting [3] was 1550 nM.

Regarding `Cc1c(OCc2ccccc2)ccn(Cc2ccccc2)c1=O` [JJJ], the IC50 under setting [1] was 7990 nM and 3460 nM.

As to `O=c1c(Br)c(OCc2ccc(F)cc2F)ccn1Cc1ccc(F)cc1F` [JJ], the IC50 under setting [2] was 850 nM.

Regarding `O=c1c(Br)c(OCc2ccccc2)ccn1Cc1cccc(F)c1` [J], the IC50 under setting [2] is 700 nM.

As to `O=c1c(Br)c(OCc2ccccc2)ccn1Cc1ccc(OCc2ccccc2)cc1` [KKKKK], the IC50 under setting [3] is 1450 nM.

For `Cc1cc(OCc2ccccc2)c(Br)c(=O)n1Cc1ccccc1` [K], the IC50 under setting [2] is 219 nM.

As to `Cc1cc(CCc2ccccc2)c(Br)c(=O)n1Cc1cccc(F)c1` [LLLLL], the IC50 under setting [3] was 1710 nM.

In the case of `Cc1ccc(COc2ccn(Cc3ccccc3)c(=O)c2Br)cc1` [LL], the IC50 under setting [1] is 1730 nM.

Regarding `COc1cccc(C)c1-n1c(C)cc(OCc2ccc(F)cc2F)c(Br)c1=O` [L], under setting [2], the IC50 worked out at 294 nM.

With `O=c1c(Br)c(OCc2ccccc2)ccn1Cc1ccc(C(F)(F)F)cc1` [MMMMM], the IC50 under setting [3] came to 1530 nM.

Consider `O=c1c(Br)c(OCc2ccccc2)ccn1Cc1ccc(C(F)(F)F)cc1` [MMM], for which the IC50 under setting [1] worked out at 1530 nM.

`O=c1c(Br)c(OCc2ccc(Cl)cc2)ccn1Cc1ccccc1` [MM]: the IC50 under setting [1] was 1380 nM.

For the molecule `O=c1c(Br)c(OCc2ccc(F)cc2F)ccn1Cc1ccccc1F` [M], the IC50 under setting [2] came to 360 nM.

For the molecule `Cc1ccccc1COc1ccn(Cc2cccc(F)c2)c(=O)c1Br` [NNNNN], the IC50 under setting [3] came to 1690 nM.

Turning to `O=c1cc(OCc2ccccc2)ccn1Cc1ccc(F)cc1` [NNNN], the IC50 under setting [1] is 64800 nM.

With `O=c1c(CO)c(OCc2ccccc2)ccn1Cc1ccccc1` [NNN], the IC50 under setting [1] stood at 24900 nM.

`O=c1c(Br)c(OCc2ccccc2Cl)ccn1Cc1ccccc1` [NN]: the IC50 under setting [1] was determined as 2030 nM.

In the case of `Cc1cc(OCc2cccc(Cl)c2)c(Br)c(=O)n1Cc1ccccc1` [OOOOO], the IC50 under setting [3] turned out to be 1600 nM.

Regarding `Cc1cc(OCc2ccccc2)cc(=O)n1Cc1ccccc1` [OOOO], the IC50 under setting [1] turned out to be 38700 nM.

Take `O=c1c(Br)c(OCc2ccc(Cl)cc2)ccn1Cc1ccc(Cl)cc1` [OO]: the IC50 under setting [1] was determined as 2460 nM.

`O=c1c(I)c(OCc2ccccc2)ccn1Cc1cccc(F)c1` [PPPPP]: under setting [3], the IC50 stood at 1760 nM.

Regarding `Cc1cccc(C)c1-n1c(C)cc(OCc2c(F)cc(F)cc2F)c(Br)c1=O` [PPPP], the IC50 under setting [3] amounted to 97 nM.

For `O=c1cc(OCc2ccccc2)ccn1Cc1cccc(F)c1` [PPP], the IC50 under setting [1] was determined as 35800 nM.

Consider `O=c1c(Br)c(OCc2ccc(Cl)cc2)ccn1Cc1ccc(F)cc1` [PP], for which, under setting [1], the IC50 worked out at 1900 nM.

Regarding `Cc1cc(OCc2ccc(F)cc2)c(Br)c(=O)n1-c1c(Cl)cccc1Cl` [P], the IC50 under setting [2] came to 403 nM.

Turning to `Cc1ccc(COc2ccn(Cc3ccccc3)c(=O)c2Br)cc1` [QQQQQ], the IC50 under setting [3] came to 1730 nM.

`Cc1cccc(C)c1-n1c(C)cc(OCc2c(F)cccc2F)c(Br)c1=O` [QQQQ]: the IC50 under setting [3] was determined as 199 nM.

On to `O=c1c(Br)c(OCc2ccccc2)ccn1CCc1ccsc1` [QQQ], for which the IC50 under setting [1] came to 3310 nM.

With `COc1ccc(Cn2ccc(OCc3ccc(Cl)cc3)c(Br)c2=O)cc1` [QQ], the IC50 under setting [1] was 2410 nM.

Regarding `Cc1ccc(Cn2ccc(OCc3ccccc3)c(Br)c2=O)cc1` [Q], the IC50 under setting [2] stood at 365 nM.

In the case of `O=c1c(Br)c(OCc2ccccc2)ccn1Cc1ccc(F)nc1` [RRRRR], the IC50 under setting [3] stood at 1850 nM.

For `Cc1cc(OCc2ccc(F)cc2F)c(Br)c(=O)n1Cc1cccnc1` [RRRR], under setting [3], the IC50 stood at 132 nM.

In the case of `O=c1c(Br)c(OCc2ccc(Cl)cc2)ccn1CCSc1ccccc1` [RRR], under setting [1], the IC50 stood at 56500 nM.

As to `O=c1c(Br)c(OCc2ccc(Cl)cc2)ccn1Cc1cccc(Cl)c1` [RR], the IC50 under setting [1] was found to be 6800 nM.

For the molecule `O=c1c(Br)c(OCc2ccccc2)ccn1Cc1ccc(Cl)cc1` [R], under setting [2], the IC50 was determined as 398 nM.
